Assay results: PubChem BioAssay AID1745844 (Carcinogenic Potency Database (CPDB), 2022)
Calls of active or inactive are those of the source. The rule behind the calls is not given here.

Test system: rodent lifetime carcinogenesis bioassay, tumor incidence TD50
Assay: carcinogenic potency in animals, long-term in vivo studies, CPDB compilation (AID 1745844)

Cc1cnc2ccc3c(nc(N)n3C)c2n1
TD50 (mouse, strain CDF1, females, in feed, site: all sites, lesion: lymphoma and leukemia, combined, dosed 84 weeks, study length 84 weeks): 6820 mg/kg/day
TD50 (mouse, strain CDF1, females, in feed, site: liver, lesion: hepatocellular adenoma, dosed 84 weeks, study length 84 weeks): 14.2 mg/kg/day
TD50 (mouse, strain CDF1, females, in feed, site: liver, lesion: hepatocellular carcinoma, dosed 84 weeks, study length 84 weeks): 27.8 mg/kg/day
TD50 (mouse, strain CDF1, females, in feed, site: liver, lesion: several types, types named in the paper, dosed 84 weeks, study length 84 weeks): 14.2 mg/kg/day
TD50 (mouse, strain CDF1, females, in feed, site: lung, lesion: adenocarcinoma, dosed 84 weeks, study length 84 weeks): 257 mg/kg/day
TD50 (mouse, strain CDF1, females, in feed, site: lung, lesion: adenoma, dosed 84 weeks, study length 84 weeks): 143 mg/kg/day
TD50 (mouse, strain CDF1, females, in feed, site: lung, lesion: several types, types named in the paper, dosed 84 weeks, study length 84 weeks): 77.2 mg/kg/day
TD50 (mouse, strain CDF1, males, in feed, site: all sites, lesion: lymphoma and leukemia, combined, dosed 84 weeks, study length 84 weeks): 109 mg/kg/day
TD50 (mouse, strain CDF1, males, in feed, site: liver, lesion: hepatocellular adenoma, dosed 84 weeks, study length 84 weeks): 86.9 mg/kg/day
TD50 (mouse, strain CDF1, males, in feed, site: liver, lesion: hepatocellular carcinoma, dosed 84 weeks, study length 84 weeks): 102 mg/kg/day
TD50 (mouse, strain CDF1, males, in feed, site: liver, lesion: several types, types named in the paper, dosed 84 weeks, study length 84 weeks): 83.8 mg/kg/day
TD50 (mouse, strain CDF1, males, in feed, site: lung, lesion: adenocarcinoma, dosed 84 weeks, study length 84 weeks): 236 mg/kg/day
TD50 (mouse, strain CDF1, males, in feed, site: lung, lesion: adenoma, dosed 84 weeks, study length 84 weeks): 262 mg/kg/day
TD50 (mouse, strain CDF1, males, in feed, site: lung, lesion: several types, types named in the paper, dosed 84 weeks, study length 84 weeks): 134 mg/kg/day
TD50 (rat, strain F344/DuCrj, females, in feed, site: Zymbal's gland, lesion: squamous-cell carcinoma, dosed 61 weeks, study length 61 weeks): 6.31 mg/kg/day
TD50 (rat, strain F344/DuCrj, females, in feed, site: clitoral gland, lesion: squamous-cell carcinoma, dosed 61 weeks, study length 61 weeks): 4.72 mg/kg/day
TD50 (rat, strain F344/DuCrj, females, in feed, site: liver, lesion: neoplastic nodule, dosed 61 weeks, study length 61 weeks): 6.31 mg/kg/day
TD50 (rat, strain F344/DuCrj, females, in feed, site: skin, lesion: squamous-cell carcinoma, dosed 61 weeks, study length 61 weeks): 87.2 mg/kg/day
TD50 (rat, strain F344/DuCrj, males, in feed, site: Zymbal's gland, lesion: sebaceous adenoma, dosed 56 weeks, study length 56 weeks): 38.9 mg/kg/day
TD50 (rat, strain F344/DuCrj, males, in feed, site: Zymbal's gland, lesion: several types, types named in the paper, dosed 56 weeks, study length 56 weeks): 4.91 mg/kg/day
TD50 (rat, strain F344/DuCrj, males, in feed, site: Zymbal's gland, lesion: several types, types named in the paper, dosed 61 weeks, study length 61 weeks): 2.72 mg/kg/day
TD50 (rat, strain F344/DuCrj, males, in feed, site: Zymbal's gland, lesion: squamous-cell carcinoma, dosed 56 weeks, study length 56 weeks): 8.6 mg/kg/day
TD50 (rat, strain F344/DuCrj, males, in feed, site: Zymbal's gland, lesion: squamous-cell carcinoma, dosed 61 weeks, study length 61 weeks): 3.59 mg/kg/day
TD50 (rat, strain F344/DuCrj, males, in feed, site: Zymbal's gland, lesion: squamous-cell papilloma, dosed 56 weeks, study length 56 weeks): 29.1 mg/kg/day
TD50 (rat, strain F344/DuCrj, males, in feed, site: Zymbal's gland, lesion: squamous-cell papilloma, dosed 61 weeks, study length 61 weeks): 35.8 mg/kg/day
TD50 (rat, strain F344/DuCrj, males, in feed, site: liver, lesion: hepatocellular adenoma, dosed 56 weeks, study length 56 weeks): 3.15 mg/kg/day
TD50 (rat, strain F344/DuCrj, males, in feed, site: liver, lesion: hepatocellular carcinoma, dosed 56 weeks, study length 56 weeks): 2.91 mg/kg/day
TD50 (rat, strain F344/DuCrj, males, in feed, site: liver, lesion: hepatocellular carcinoma, dosed 61 weeks, study length 61 weeks): 1.26 mg/kg/day
TD50 (rat, strain F344/DuCrj, males, in feed, site: liver, lesion: neoplastic nodule, dosed 61 weeks, study length 61 weeks): 73.5 mg/kg/day
TD50 (rat, strain F344/DuCrj, males, in feed, site: liver, lesion: several types, types named in the paper, dosed 56 weeks, study length 56 weeks): 1.24 mg/kg/day
carcinogen call (rat, strain F344/DuCrj, males, in feed, site: liver, lesion: several types, types named in the paper, dosed 61 weeks, study length 61 weeks): positive
TD50 (rat, strain F344/DuCrj, males, in feed, site: skin, lesion: basal-cell carcinoma, dosed 61 weeks, study length 61 weeks): 73.5 mg/kg/day
TD50 (rat, strain F344/DuCrj, males, in feed, site: skin, lesion: sebaceous adenoma, dosed 56 weeks, study length 56 weeks): 58.8 mg/kg/day
TD50 (rat, strain F344/DuCrj, males, in feed, site: skin, lesion: several types, types named in the paper, dosed 56 weeks, study length 56 weeks): 12 mg/kg/day
TD50 (rat, strain F344/DuCrj, males, in feed, site: skin, lesion: several types, types named in the paper, dosed 61 weeks, study length 61 weeks): 8.76 mg/kg/day
TD50 (rat, strain F344/DuCrj, males, in feed, site: skin, lesion: squamous-cell carcinoma, dosed 56 weeks, study length 56 weeks): 59.2 mg/kg/day
TD50 (rat, strain F344/DuCrj, males, in feed, site: skin, lesion: squamous-cell carcinoma, dosed 61 weeks, study length 61 weeks): 13.1 mg/kg/day
TD50 (rat, strain F344/DuCrj, males, in feed, site: skin, lesion: squamous-cell papilloma, dosed 56 weeks, study length 56 weeks): 59.2 mg/kg/day
TD50 (rat, strain F344/DuCrj, males, in feed, site: skin, lesion: squamous-cell papilloma, dosed 61 weeks, study length 61 weeks): 73.5 mg/kg/day
TD50 (rat, strain F344/DuCrj, males, in feed, site: skin, lesion: trichoepithelioma, dosed 56 weeks, study length 56 weeks): 38.9 mg/kg/day

COC1=CC(=O)C[C@@H](C)[C@]12Oc1c(Cl)c(OC)cc(OC)c1C2=O
carcinogen call (hamster, strain Syrian Golden, females, in feed, site: liver, lesion: cholangiocarcinoma, dosed 97 weeks, study length 101 weeks): negative (inactive)
carcinogen call (hamster, strain Syrian Golden, males, in feed, site: liver, lesion: one or several types, types not named, dosed 123 weeks, study length 127 weeks): negative (inactive)
TD50 (mouse, strain Swiss albino, females, by gavage, site: mammary gland, lesion: infiltrating duct carcinoma, dosed 52 weeks, study length 52 weeks): 13.8 mg/kg/day
carcinogen call (mouse, strain Swiss, females, in feed, site: liver, lesion: hemangioma, dosed 115 weeks, study length 115 weeks): negative (inactive)
carcinogen call (mouse, strain Swiss, females, in feed, site: lung, lesion: one or several types, types not named, dosed 115 weeks, study length 115 weeks): negative (inactive)
carcinogen call (mouse, strain Swiss, males, in feed, site: liver, lesion: hemangioma, dosed 115 weeks, study length 115 weeks): negative (inactive)
TD50 (mouse, strain Swiss, males, in feed, site: liver, lesion: hepatoma, dosed 115 weeks, study length 115 weeks): 1660 mg/kg/day
carcinogen call (mouse, strain Swiss, males, in feed, site: lung, lesion: one or several types, types not named, dosed 115 weeks, study length 115 weeks): negative (inactive)

[O]=[W](=[O])([OH])[OH]
carcinogen call (rat, strain Long-Evans BLU:(LE), females, in drinking water, site: any site (literature study), lesion: malignant tumor, dosed 149 weeks, study length 149 weeks): negative (inactive)
carcinogen call (rat, strain Long-Evans BLU:(LE), females, in drinking water, site: any site (literature study), lesion: several types, types named in the paper, dosed 149 weeks, study length 149 weeks): negative (inactive)
TD50 (rat, strain Long-Evans BLU:(LE), males, in drinking water, site: any site (literature study), lesion: malignant tumor, dosed 136 weeks, study length 136 weeks): 87.7 mg/kg/day (inactive)
TD50 (rat, strain Long-Evans BLU:(LE), males, in drinking water, site: any site (literature study), lesion: several types, types named in the paper, dosed 136 weeks, study length 136 weeks): 40.1 mg/kg/day (inactive)

C=C/C=N/O
TD50 (rat, strain Fischer 344, females, in drinking water, site: liver, lesion: hepatocellular carcinoma, dosed 104 weeks, study length 129 weeks): 104 mg/kg/day
TD50 (rat, strain Fischer 344, females, in drinking water, site: liver, lesion: hyperplastic nodule, dosed 30 weeks, study length 123 weeks): 41.9 mg/kg/day
TD50 (rat, strain Fischer 344, females, in drinking water, site: liver, lesion: hyperplastic nodule, dosed 104 weeks, study length 129 weeks): 43.8 mg/kg/day
TD50 (rat, strain Fischer 344, females, in drinking water, site: liver, lesion: several types, types named in the paper, dosed 104 weeks, study length 129 weeks): 27.1 mg/kg/day
TD50 (rat, strain Fischer 344, males, in drinking water, site: liver, lesion: hepatocellular carcinoma, dosed 30 weeks, study length 123 weeks): 50.7 mg/kg/day
TD50 (rat, strain Fischer 344, males, in drinking water, site: liver, lesion: hepatocellular carcinoma, dosed 104 weeks, study length 128 weeks): 72.6 mg/kg/day
TD50 (rat, strain Fischer 344, males, in drinking water, site: liver, lesion: hyperplastic nodule, dosed 30 weeks, study length 123 weeks): 29.3 mg/kg/day
TD50 (rat, strain Fischer 344, males, in drinking water, site: liver, lesion: hyperplastic nodule, dosed 104 weeks, study length 128 weeks): 64.9 mg/kg/day
TD50 (rat, strain Fischer 344, males, in drinking water, site: liver, lesion: several types, types named in the paper, dosed 30 weeks, study length 123 weeks): 16.4 mg/kg/day
TD50 (rat, strain Fischer 344, males, in drinking water, site: liver, lesion: several types, types named in the paper, dosed 104 weeks, study length 128 weeks): 30.4 mg/kg/day

CCCC[N+](=O)[O-]
carcinogen call (rat, strain Fischer 344, males, by gavage, site: liver, lesion: one or several types, types not named, dosed 50 weeks, study length 83 weeks): negative (inactive)

N#CN=C(N)N
carcinogen call (rat, strain F344/DuCrj, females, in feed, site: any site (literature study), lesion: several types, types named in the paper, dosed 104 weeks, study length 113 weeks): negative (inactive)
carcinogen call (rat, strain F344/DuCrj, females, in feed, site: liver, lesion: one or several types, types not named, dosed 104 weeks, study length 113 weeks): negative (inactive)
carcinogen call (rat, strain F344/DuCrj, males, in feed, site: any site (literature study), lesion: several types, types named in the paper, dosed 104 weeks, study length 113 weeks): negative (inactive)
TD50 (rat, strain F344/DuCrj, males, in feed, site: liver, lesion: hepatocellular adenoma, dosed 104 weeks, study length 113 weeks): 109000 mg/kg/day (inactive)
TD50 (rat, strain F344/DuCrj, males, in feed, site: subcutaneous tissue, lesion: lipoma, dosed 104 weeks, study length 113 weeks): 15600 mg/kg/day (inactive)

OCCBr
TD50 (mouse, strain B6C3F1, females, in drinking water, site: any site (literature study), lesion: several types, types named in the paper, dosed 79 weeks, study length 79 weeks): 73.2 mg/kg/day
TD50 (mouse, strain B6C3F1, females, in drinking water, site: forestomach, lesion: squamous-cell papilloma, dosed 79 weeks, study length 79 weeks): 69.7 mg/kg/day
TD50 (mouse, strain B6C3F1, females, in drinking water, site: liver, lesion: hemangioma, dosed 79 weeks, study length 79 weeks): 800 mg/kg/day
TD50 (mouse, strain B6C3F1, females, in drinking water, site: lung, lesion: papillary tumor, dosed 79 weeks, study length 79 weeks): 1890 mg/kg/day
TD50 (mouse, strain B6C3F1, males, in drinking water, site: any site (literature study), lesion: several types, types named in the paper, dosed 78 weeks, study length 78 weeks): 86.6 mg/kg/day
TD50 (mouse, strain B6C3F1, males, in drinking water, site: forestomach, lesion: squamous-cell papilloma, dosed 78 weeks, study length 78 weeks): 83.9 mg/kg/day

C=CCCl
TD50 (mouse, strain B6C3F1, females, by gavage, site: any site (literature study), lesion: several types, types named in the paper, dosed 78 weeks, study length 91 weeks): 343 mg/kg/day
TD50 (mouse, strain B6C3F1, females, by gavage, site: liver, lesion: hepatocellular adenoma + hepatocellular carcinoma + neoplastic nodule, dosed 78 weeks, study length 91 weeks): 2180 mg/kg/day
TD50 (mouse, strain B6C3F1, females, by gavage, site: lung, lesion: alveolar/bronchiolar adenoma + alveolar/bronchiolar carcinoma, dosed 78 weeks, study length 91 weeks): 1250 mg/kg/day
TD50 (mouse, strain B6C3F1, females, by gavage, site: stomach, lesion: squamous-cell carcinoma + squamous-cell papilloma, dosed 78 weeks, study length 91 weeks): 706 mg/kg/day
TD50 (mouse, strain B6C3F1, males, by gavage, site: any site (literature study), lesion: several types, types named in the paper, dosed 67 weeks, study length 91 weeks): 184 mg/kg/day
TD50 (mouse, strain B6C3F1, males, by gavage, site: liver, lesion: hepatocellular adenoma + hepatocellular carcinoma + neoplastic nodule, dosed 67 weeks, study length 91 weeks): 457 mg/kg/day
TD50 (mouse, strain B6C3F1, males, by gavage, site: stomach, lesion: squamous-cell carcinoma + squamous-cell papilloma, dosed 67 weeks, study length 91 weeks): 727 mg/kg/day
TD50 (rat, strain Osborne-Mendel, females, by gavage, site: any site (literature study), lesion: several types, types named in the paper, dosed 78 weeks, study length 110 weeks): 35.2 mg/kg/day
TD50 (rat, strain Osborne-Mendel, males, by gavage, site: any site (literature study), lesion: several types, types named in the paper, dosed 78 weeks, study length 110 weeks): 28.1 mg/kg/day
